{"source": "patent EP4772500A1", "about": "“NOVEL ISOXAZOLE COMPOUND AS TM4SF5-SPECIFIC INHIBITOR AND USE THEREOF” (Seoul National University R&DB Foundation, priority 2023, dated 2025)", "system": "SNU449-TM4SF5 cells", "experiment": "qRT-PCR of cytokines/chemokines, fibrosis and T/NK cell related factors", "format": "cell-based, human", "settings": "2.5 µM, 24 hours, SNU449-TM4SF5 (FIG. 8e-g)", "experimental": "After disrupting cells or tissues using Qiazol (Qiagen, USA), chloroform was added thereto, and centrifugation was performed at 12,000x g and 4°C for 15 minutes for phase separation, followed by separating the upper […] layer. After adding isopropanol to the separated […] layer to precipitate RNA, it was washed with 70% ethanol. An RNA pellet was separated by centrifugation at 7,500x g for 5 minutes, and ethanol was evaporated for 10 minutes, followed by solubilization in 30 µl of DEPC-water. The solubilized RNA was reverse-transcribed using a reverse transcription kit (Toyobo, Japan) after removing gDNA to obtain cDNA. For the obtained cDNA, expression was measured by real-time PCR (Bio-Rad, USA) using 2x Eva green master mix (Labopass, Republic of Korea) and 0.4 µM forward/reverse primers. The expression level was calculated using Pfaffl's modified delta-delta Ct method.\nNormal 22-week-old C57BL/6 mice were randomly divided into a normal chow diet (NCD) group and a Methionine-Choline Deficient (MCD) diet group, which is a non-alcoholic steatohepatitis (NASH) induction diet, with 3 to 6 mice per group, and were allowed free access to the diets for 4 weeks. Simultaneously, vehicle (DMSO) or ST-2-001 at a concentration of 5 mg/kg was treated twice a week per animal via intraperitoneal injection (IP). […]"}
{"smiles": "COc1ccc(-c2cc(-c3ccc(NC(C)=O)cc3)no2)cc1", "note": "[ST-2-001, N-(4-(5-(4-methoxyphenyl)isoxazole-3-yl)phenyl)acetamide]", "values": [{"measurement": "mRNA levels of inflammation-related cytokines/chemokines, liver fibrosis factors, and factors related to T cell or NK cell natural killer activation", "result": "inhibited"}]}
